Test results published in ChEMBL document CHEMBL3044641, “Design and synthesis of some novel 3-[5-(4-substituted) phenyl-1,3,4-oxadiazole-2yl]-2-phenylquinazoline-4(3H)-ones as possible anticonvulsant agent” (Med Chem Res, 2011).
Calls of active or inactive are those of the source. No cut-off for these calls is given here.

What was measured:
Mus musculus [1] = test: Neurotoxicity in ip dosed Mus musculus albino (mouse) assessed as minimal motor impairment after 0.5 hr by rotarod test; assay type: toxicity, organism-based; settings: in vivo
Mus musculus [2] = test: Anticonvulsant activity in Mus musculus albino (mouse) assessed as protection against subcutaneous metrazole-induced seizure at 300 mg/kg, ip after 0.5 hr; assay type: functional, organism-based; set-up: dose 300 mg/kg
Mus musculus [3] = test: Neurotoxicity in Mus musculus albino (mouse) assessed as minimal motor impairment at 300 mg/kg, ip after 4 hr by rotarod test; assay type: toxicity, organism-based; set-up: dose 300 mg/kg, route intraperitoneal; settings: in vivo
Mus musculus [4] = test: Anticonvulsant activity in ip dosed Mus musculus albino (mouse) assessed as protection against maximal electroshock-induced seizure after 4 hr; assay type: functional; settings: read-out: MED
Mus musculus [5] = test: Anticonvulsant activity in Mus musculus albino (mouse) assessed as protection against subcutaneous metrazole-induced seizure at 300 mg/kg, ip after 4 hr; assay type: functional, organism-based; set-up: dose 300 mg/kg
Mus musculus [6] = test: Anticonvulsant activity in ip dosed Mus musculus albino (mouse) assessed as protection against maximal electroshock-induced seizure after 0.5 hr; assay type: functional; settings: read-out: MED
Mus musculus [7] = test: Anticonvulsant activity in Mus musculus albino (mouse) assessed as protection against maximal electroshock-induced seizure at 300 mg/kg, ip after 4 hr; assay type: functional, organism-based; set-up: dose 300 mg/kg
Mus musculus [8] = test: Neurotoxicity in Mus musculus albino (mouse) assessed as minimal motor impairment at 300 mg/kg, ip after 0.5 hr by rotarod test; assay type: toxicity, organism-based; set-up: dose 300 mg/kg, route intraperitoneal; settings: in vivo
Mus musculus [9] = test: Neurotoxicity in ip dosed Mus musculus albino (mouse) assessed as minimal motor impairment after 4 hr by rotarod test; assay type: toxicity, organism-based; settings: in vivo
Mus musculus [10] = test: Anticonvulsant activity in Mus musculus albino (mouse) assessed as protection against maximal electroshock-induced seizure at 300 mg/kg, ip after 0.5 hr; assay type: functional, organism-based; set-up: dose 300 mg/kg
Mus musculus [11] = test: Anticonvulsant activity in ip dosed Mus musculus albino (mouse) assessed as protection against subcutaneous metrazole-induced seizure after 0.5 hr; assay type: functional; settings: read-out: MED
Mus musculus [12] = test: Anticonvulsant activity in ip dosed Mus musculus albino (mouse) assessed as protection against subcutaneous metrazole-induced seizure after 4 hr; assay type: functional; settings: read-out: MED

SMILES | Activity (Mus musculus [1]) | Activity (Mus musculus [2]) | Activity (Mus musculus [3]) | minimal effective dose (Mus musculus [4]) | Activity (Mus musculus [5]) | minimal effective dose (Mus musculus [6]) | Activity (Mus musculus [7]) | Activity (Mus musculus [8]) | Activity (Mus musculus [9]) | Activity (Mus musculus [10]) | minimal effective dose (Mus musculus [11]) | minimal effective dose (Mus musculus [12])
O=c1c2ccccc2nc(-c2ccccc2)n1-c1nnc(-c2ccc(F)cc2)o1 | 300 mg/kg | inactive | Non-toxic | 300 mg/kg | inactive | 300 mg/kg |  |  |  |  |  | 
O=c1c2ccccc2nc(-c2ccccc2)n1-c1nnc(-c2ccccc2)o1 |  | inactive | Non-toxic |  | inactive | 300 mg/kg | inactive | Non-toxic |  |  |  | 
Cc1ccc(-c2nnc(-n3c(-c4ccccc4)nc4ccccc4c3=O)o2)cc1 |  | inactive |  |  | inactive |  | inactive | Non-toxic | 300 mg/kg | inactive |  | 
NC(=O)N1c2ccccc2C=Cc2ccccc21 [CARBAMAZEPINE] | 100 mg/kg |  |  | 100 mg/kg |  | 30 mg/kg |  |  | 300 mg/kg |  | 100 mg/kg | 300 mg/kg
COc1ccc(-c2nnc(-n3c(-c4ccccc4)nc4ccccc4c3=O)o2)cc1 | 300 mg/kg | inactive |  |  | inactive |  | inactive |  | 300 mg/kg | inactive |  | 
O=c1c2ccccc2nc(-c2ccccc2)n1-c1nnc(-c2ccc(Cl)cc2)o1 |  | inactive | Non-toxic |  | inactive |  | inactive | Non-toxic |  | inactive |  | 
O=C1NC(=O)C(c2ccccc2)(c2ccccc2)N1 [PHENYTOIN] | 100 mg/kg | inactive |  | 30 mg/kg | inactive | 30 mg/kg |  |  | 100 mg/kg |  |  | 
O=c1c2ccccc2nc(-c2ccccc2)n1-c1nnc(-c2ccc([N+](=O)[O-])cc2)o1 | 300 mg/kg | inactive |  |  | inactive |  | inactive |  | 300 mg/kg | inactive |  | 
